Assay results: patent US10414811B2, “Protease-resistant lipidated GLP-1 analogs” (MEDIMMUNE LIMITED, priority 2015, dated 2019)
Where two headings read alike, the source gives them in different places. Numbered stars: 1 amine (or outer) side, 2 acyl side, 3 side chain; on linkers, the order of the positions; unused ones are H or OH. Square brackets hold non-standard residues; d marks the D form. Side chains are listed from the residue outwards. Peptide text beside a SMILES is read from it. * marks the point of attachment. γGlu = O=C(O)[C@H](CCC(=O)[*:2])N[*:1]; Palmitoyl = CCCCCCCCCCCCCCCC(=O)*; αMeF = C[C@](N)(Cc1ccccc1)C(=O)O; αMeK = C[C@](N)(CCCCN)C(=O)O; Aib = CC(C)(N)C(=O)O

How the values were obtained:
Format in all cases: cell-based
[1] = biological target: T1, human GLP-1 receptor (GLP-1R) (Homo sapiens, UniProt P43220); assay: cAMP assay, human GLP-1R cells
T1 construct: expressed in transfected cells
Experimental: Sample dilutions are made in duplicate.
A frozen cryo-vial of cells expressing the receptor of interest is thawed rapidly in a water-bath, transferred to pre-warmed assay buffer and spun at 240×g for 5 minutes. Cells are re-suspended in assay buffer at a batch-dependent optimized concentration (e.g. hGCGR cells at 2×10^5 cells/ml, hGLP-1R and hGIPR cells at 1×10^5 cells/ml).
To this, 5 μL cell suspension is added and the plates incubated at room temperature for 30 minutes.
cAMP levels are measured using a commercially available cAMP dynamic 2 HTRF kit (Cisbio, Cat #62AM4PEJ), following the two step protocol as per manufacturer's recommendations. In brief; anti-cAMP cryptate (donor fluorophore) and cAMP-d2 (acceptor fluorophore) are made up separately by diluting each 1/20 in conjugate & lysis buffer provided in the kit. 5 μL anti-cAMP cryptate is added to wells of the assay plate, and 5 μL cAMP-d2 is added to wells except non-specific binding (NSB) wells, to which conjugate and lysis buffer are added. […] EC50 values of the synthetic peptides determined in cAMP assays are then determined.
Data is transformed to % Delta F as described in the manufacturer's guidelines and analyzed by 4-parameter logistic fit to determine EC50 values. […] To compare the balance of activities at the GLP-1R and GCGR between different peptides and across different conditions, these can be correlated, where the EC50's are related to those of comparator peptides.

[2] = biological target: T2, human glucagon receptor (GCGR) (Homo sapiens, UniProt P47871); assay: cAMP assay, human GCGR cells; details: cAMP assay
T2 construct: expressed in transfected cells
How it was run: (§1)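 Peptide-stimulated cAMP measured by two-step HTRF after a 30 min room-temperature incubation with receptor-expressing cells (hGLP-1R, hGIPR at 1×10^5 cells/ml; hGCGR at 2×10^5 cells/ml). Duplicate dilutions; EC50 from 4-parameter logistic fit of % Delta F.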

[3] = biological target: T3, human glucose-dependent insulinotropic peptide receptor (GIPR) (Homo sapiens, UniProt P48546); assay: cAMP assay, human GIPR cells; details: cAMP assay
T3 construct: expressed in transfected cells
T3 sequence (P48546 22-466): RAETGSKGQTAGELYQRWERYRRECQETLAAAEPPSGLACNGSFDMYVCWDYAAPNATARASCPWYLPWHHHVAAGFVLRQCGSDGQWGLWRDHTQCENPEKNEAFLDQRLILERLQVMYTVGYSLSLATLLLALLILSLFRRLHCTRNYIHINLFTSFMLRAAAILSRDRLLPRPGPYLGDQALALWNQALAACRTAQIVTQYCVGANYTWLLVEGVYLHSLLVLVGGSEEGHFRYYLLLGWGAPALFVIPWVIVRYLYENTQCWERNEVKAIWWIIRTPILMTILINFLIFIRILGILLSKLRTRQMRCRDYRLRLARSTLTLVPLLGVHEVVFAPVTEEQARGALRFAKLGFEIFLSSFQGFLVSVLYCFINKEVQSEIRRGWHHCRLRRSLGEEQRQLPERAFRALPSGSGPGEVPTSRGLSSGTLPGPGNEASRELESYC
How it was run: as §1

[4] = cAMP assay, first determination (n1), read-out: Primary assay EC50 GLP-1R n1
[5] = cAMP assay, second determination (n2), read-out: Primary assay EC50 GLP-1R n2
[6] = mean of n1 and n2, read-out: Mean pM GLP-1R
[7] = first determination (n1), read-out: Primary assay EC50 Gluc-R (n1)
[8] = second determination (n2), read-out: Primary assay EC50 Gluc-R (n2)
[9] = first determination (n1), read-out: Primary assay EC50 GIP-R (n1)
[10] = second determination (n2), read-out: Primary assay EC50 GIP-R (n2)

T2 sequence (P47871 26-477): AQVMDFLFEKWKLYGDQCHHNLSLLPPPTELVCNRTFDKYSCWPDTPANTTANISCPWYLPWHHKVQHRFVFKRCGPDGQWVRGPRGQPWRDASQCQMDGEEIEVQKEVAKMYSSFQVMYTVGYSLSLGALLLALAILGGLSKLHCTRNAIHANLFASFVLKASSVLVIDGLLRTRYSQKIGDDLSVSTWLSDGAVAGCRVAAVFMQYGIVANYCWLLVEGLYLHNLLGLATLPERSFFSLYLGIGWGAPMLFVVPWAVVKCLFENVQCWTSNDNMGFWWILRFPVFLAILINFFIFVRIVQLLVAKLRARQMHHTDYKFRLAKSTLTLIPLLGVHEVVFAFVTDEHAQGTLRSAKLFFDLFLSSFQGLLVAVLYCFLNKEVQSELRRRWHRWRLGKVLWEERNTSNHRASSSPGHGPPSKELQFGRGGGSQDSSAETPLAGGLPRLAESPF
T1 sequence (P43220 24-463): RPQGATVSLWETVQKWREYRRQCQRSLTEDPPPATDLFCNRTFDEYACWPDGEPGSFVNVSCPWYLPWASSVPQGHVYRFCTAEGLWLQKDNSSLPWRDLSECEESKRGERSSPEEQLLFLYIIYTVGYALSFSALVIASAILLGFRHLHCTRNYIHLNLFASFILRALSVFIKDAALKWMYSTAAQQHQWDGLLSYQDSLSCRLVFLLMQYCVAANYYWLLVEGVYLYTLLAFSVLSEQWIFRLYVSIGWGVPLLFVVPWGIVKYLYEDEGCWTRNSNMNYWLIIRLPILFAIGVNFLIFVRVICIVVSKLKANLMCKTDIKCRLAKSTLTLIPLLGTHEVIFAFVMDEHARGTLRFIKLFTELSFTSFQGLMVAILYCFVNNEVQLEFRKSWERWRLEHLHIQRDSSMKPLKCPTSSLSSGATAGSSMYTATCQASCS

EC50 [1, 4] | EC50 [1, 5] | EC50 [1, 6] | EC50 [2, 7] | EC50 [2, 8] | EC50 [3, 9] | EC50 [3, 10] | Structure (SMILES)
350 pM | 430 pM | 389 pM | ≥ 100 nM | ≥ 100 nM | ≥ 100 nM | ≥ 100 nM | CC[C@H](C)[C@H](NC(=O)[C@](C)(Cc1ccccc1)NC(=O)[C@H](CCC(=O)O)NC(=O)[C@](C)(CCCCN)NC(=O)[C@H](C)NC(=O)[C@H](C)NC(=O)[C@H](CCC(=O)O)NC(=O)CNC(=O)[C@H](CCC(=O)O)NC(=O)[C@H](CC(C)C)NC(=O)[C@](C)(Cc1ccccc1)NC(=O)[C@H](CO)NC(=O)[C@H](CO)NC(=O)[C@@H](NC(=O)[C@H](CCC(=O)O)NC(=O)[C@H](CO)NC(=O)[C@@H](NC(=O)[C@](C)(Cc1ccccc1)NC(=O)[C@H](CO)NC(=O)CNC(=O)[C@H](CCC(=O)O)NC(=O)C(C)(C)NC(=O)[C@@H](N)Cc1c[nH]cn1)[C@@H](C)O)C(C)C)C(=O)N[C@@H](C)C(=O)N[C@@](C)(Cc1ccccc1)C(=O)N[C@H](C(=O)N[C@H](C(=O)N[C@@](C)(CCCCN)C(=O)NCC(=O)NCC(N)=O)C(C)C)C(C)C [compound 7] (H-H[Aib]EGS[αMeF]TSEVSS[αMeF]LEGEAA[αMeK]E[αMeF]IA[αMeF]VV[αMeK]GG-NH2)
71 pM | 110 pM | 88 pM | 7.8 nM | 12 nM | 23 nM | 23 nM | CC[C@H](C)[C@H](NC(=O)[C@](C)(Cc1ccccc1)NC(=O)[C@H](CCC(=O)O)NC(=O)[C@](C)(CCCCN)NC(=O)[C@H](C)NC(=O)[C@H](C)NC(=O)[C@H](CCC(=O)O)NC(=O)CNC(=O)[C@H](CCC(=O)O)NC(=O)[C@H](CC(C)C)NC(=O)[C@](C)(Cc1ccccc1)NC(=O)[C@H](CO)NC(=O)[C@H](CO)NC(=O)[C@@H](NC(=O)[C@H](CC(=O)O)NC(=O)[C@H](CO)NC(=O)[C@H](CO)NC(=O)[C@](C)(Cc1ccccc1)NC(=O)[C@H](CO)NC(=O)CNC(=O)[C@H](CCC(=O)O)NC(=O)C(C)(C)NC(=O)[C@@H](N)Cc1c[nH]cn1)C(C)C)C(=O)N[C@@H](C)C(=O)N[C@@](C)(Cc1ccccc1)C(=O)N[C@H](C(=O)N[C@H](C(=O)N[C@@](C)(CCCCN)C(=O)NCC(=O)NCC(N)=O)C(C)C)C(C)C [compound 8] (H-H[Aib]EGS[αMeF]SSDVSS[αMeF]LEGEAA[αMeK]E[αMeF]IA[αMeF]VV[αMeK]GG-NH2; N-terminus assumed)
32 pM | 32 pM | 32 pM | ≥ 100 nM | ≥ 100 nM | ≥ 100 nM | ≥ 100 nM | CC(C)C[C@H](NC(=O)[C@](C)(Cc1ccccc1)NC(=O)[C@H](CO)NC(=O)[C@H](CO)NC(=O)[C@@H](NC(=O)[C@H](CC(=O)O)NC(=O)[C@H](CO)NC(=O)[C@@H](NC(=O)[C@](C)(Cc1ccccc1)NC(=O)[C@H](CO)NC(=O)CNC(=O)[C@H](CCC(=O)O)NC(=O)C(C)(C)NC(=O)[C@@H](N)Cc1c[nH]cn1)[C@@H](C)O)C(C)C)C(=O)N[C@@H](CCC(=O)O)C(=O)NCC(=O)N[C@@H](CCC(=O)O)C(=O)N[C@@H](C)C(=O)N[C@@H](C)C(=O)N[C@@](C)(CCCCN)C(=O)N[C@@H](CCC(=O)O)C(=O)N[C@@](C)(Cc1ccccc1)C(=O)N[C@H](C(=O)N[C@@H](C)C(=O)N[C@@](C)(Cc1ccccc1)C(=O)N[C@H](C(=O)N[C@H](C(=O)N[C@@](C)(CCCCN)C(=O)NCC(=O)NCC(N)=O)C(C)C)C(C)C)C(C)C [compound 11] (H-H[Aib]EGS[αMeF]TSDVSS[αMeF]LEGEAA[αMeK]E[αMeF]VA[αMeF]VV[αMeK]GG-NH2)
22 pM | 9.6 pM | 16 pM | 7.6 nM | 4.1 nM | 0.69 nM | 0.63 nM | CCCCCCCCCCCCCCCC(=O)N[C@@H](CCC(=O)NCCCC[C@H](NC(=O)[C@H](CC(=O)O)NC(=O)[C@H](CO)NC(=O)[C@@H](NC(=O)[C@](C)(Cc1ccccc1)NC(=O)[C@H](CO)NC(=O)CNC(=O)[C@H](CCC(N)=O)NC(=O)C(C)(C)NC(=O)[C@@H](N)Cc1c[nH]cn1)[C@@H](C)O)C(=O)N[C@@H](CO)C(=O)N[C@@H](CCC(=O)O)C(=O)N[C@@](C)(Cc1ccccc1)C(=O)N[C@@H](CC(C)C)C(=O)N[C@@H](CC(=O)O)C(=O)N[C@@H](CO)C(=O)N[C@@H](CCC(=O)O)C(=O)N[C@@H](CCCNC(=N)N)C(=O)N[C@@H](C)C(=O)N[C@@H](CCCNC(=N)N)C(=O)N[C@@H](CC(=O)O)C(=O)N[C@@](C)(Cc1ccccc1)C(=O)N[C@H](C(=O)N[C@@H](C)C(=O)N[C@@](C)(Cc1ccccc1)C(=O)N[C@@H](CC(C)C)C(=O)N[C@@H](CCC(=O)O)C(=O)N[C@@H](C)C(=O)NCC(=O)NCC(N)=O)C(C)C)C(=O)O [compound 13] (H-H[Aib]QGS[αMeF]TSDK([γGlu-Palmitoyl])SE[αMeF]LDSERARD[αMeF]VA[αMeF]LEAGG-NH2)
3100 pM | 1800 pM | 2440 pM | 3 nM | 1.1 nM | 15 nM | 19 nM | CSCC[C@H](NC(=O)[C@H](CC(C)C)NC(=O)[C@](C)(Cc1ccccc1)NC(=O)[C@H](CCC(N)=O)NC(=O)[C@@H](NC(=O)[C@](C)(Cc1ccccc1)NC(=O)[C@H](CC(=O)O)NC(=O)[C@H](CCC(N)=O)NC(=O)[C@H](C)NC(=O)[C@H](CCCNC(=N)N)NC(=O)[C@H](CCCNC(=N)N)NC(=O)[C@H](CO)NC(=O)[C@H](CC(=O)O)NC(=O)[C@H](CC(C)C)NC(=O)[C@](C)(Cc1ccccc1)NC(=O)[C@H](CCCCN)NC(=O)[C@H](CO)NC(=O)[C@](C)(Cc1ccccc1)NC(=O)[C@H](CC(=O)O)NC(=O)[C@H](CO)NC(=O)[C@@H](NC(=O)[C@](C)(Cc1ccccc1)NC(=O)[C@H](CO)NC(=O)CNC(=O)[C@H](CCC(N)=O)NC(=O)C(C)(C)NC(=O)[C@@H](N)Cc1c[nH]cn1)[C@@H](C)O)C(C)C)C(=O)N[C@@H](CC(N)=O)C(=O)N[C@H](C(N)=O)[C@@H](C)O [compound 14] (H-H[Aib]QGS[αMeF]TSD[αMeF]SK[αMeF]LDSRRAQD[αMeF]VQ[αMeF]LMNT-NH2)
120000 pM | 120000 pM | 119000 pM | 120 nM | 120 nM | 0.16 nM | 0.079 nM | CC[C@H](C)[C@H](NC(=O)[C@H](CO)NC(=O)[C@](C)(Cc1ccccc1)NC(=O)[C@H](CC(=O)O)NC(=O)[C@H](CO)NC(=O)[C@@H](NC(=O)[C@](C)(Cc1ccccc1)NC(=O)[C@H](CO)NC(=O)CNC(=O)[C@H](CCC(=O)O)NC(=O)C(C)(C)NC(=O)[C@@H](N)Cc1ccc(O)cc1)[C@@H](C)CC)C(=O)N[C@@H](C)C(=O)N[C@@H](CCSC)C(=O)N[C@@H](CC(=O)O)C(=O)N[C@@H](CCCCN)C(=O)N[C@H](C(=O)N[C@@H](Cc1c[nH]cn1)C(=O)N[C@@H](CCC(N)=O)C(=O)N[C@@H](CCC(N)=O)C(=O)N[C@@H](CC(=O)O)C(=O)N[C@@](C)(Cc1ccccc1)C(=O)N[C@H](C(=O)N[C@@H](CC(N)=O)C(=O)N[C@@](C)(Cc1ccccc1)C(=O)N[C@@H](CC(C)C)C(=O)N[C@@H](CC(C)C)C(=O)N[C@@H](C)C(=O)N[C@@H](CCC(N)=O)C(=O)N[C@@H](CCCCN)C(N)=O)C(C)C)[C@@H](C)CC [compound 15] (H-Y[Aib]EGS[αMeF]ISD[αMeF]SIAMDKIHQQD[αMeF]VN[αMeF]LLAQK-NH2; N-terminus assumed)
